# Laboratory results from US12186297B2, “Compositions and methods for increasing lean-to-fat mass ratio” (AXCESS GLOBAL SCIENCES, LLC, priority 2020, dated 2025).
# Experiment: Expected change in fat mass, muscle mass and lean-to-fat mass ratio in subjects following a training regimen (FIGS. 3, 4A-4C)
# Format: in vivo
# Details: FIG. 4A, set period of time (e.g., 1-3 months)
# Description: FIG. 4A illustrates expected change in fat mass over a set period of time (e.g., 1-3 months) for subjects following a training regimen and given different treatments of HMB only (HMB), BHB only (BHB), and a combination of the same amounts of HMB and BHB (HMB+BHB).
# FIG. 4B illustrates expected change in muscle mass over a set period of time (e.g., 1-3 months) for subjects following a training regimen and given different treatments of HMB only (HMB), BHB only (BHB), and a combination of the same amounts of HMB and BHB (HMB+BHB).
compound,measurement,value
"CC(C)(O)CC(=O)O [HMB, beta-hydroxy-beta-methylbutyrate]",expected change in fat mass,not expected to provide fat loss to any significant degree by itself
